Results reported in patent publication US20140107054A1, “Method of treating clostridium difficile-associated diarrhea” (priority 2006, published 2014).
Values after ≈ are worked out from the molar mass of the structure shown. Values joined by “and” are separate entries in the source; they are usually repeats but may differ in a detail not shown here. Equal entries are not always repeated.

How the values were obtained:
[1] = Fold increase in MIC relative to tiacumicin B (API mixture profile table); format: cell-based
C. difficile strains [2] = assay: MIC, agar dilution, statements for C. difficile strains together; format: cell-based, Clostridium difficile
Source text: (§1) Laboratory strains of Clostridium difficile 9689, 700057, 43255, 17857 and Eubacterium lentum 43055 were obtained from American Type Culture Collection (ATCC). […] Broth dilution is not a validated method for MIC testing of Clostridium; however, due to potential inaccuracy of measuring the pH of solid agar after equilibration inside the anaerobic chamber, both methods were used and compared for the assessment of pH effects. […] Even with strong buffering, the pH shifted slightly following equilibration in the anaerobic gas, and thus in some cases media was titered in ambient air to above the desired anaerobic pH. The actual pH was always confirmed following equilibration inside the anaerobic chamber. […] The level of divalent cations in the Brucella broth as acquired from the manufacturer were determined by the Laboratory Specialists, Inc.

[3] = test system: Eubacterium lentum (43055); assay: MIC, CLSI agar dilution, different lots of media (QC organism); format: cell-based; conditions: Eggerthella lenta
Source text: (§2) Laboratory strains of Clostridium difficile 9689, 700057, 43255, 17857 and Eubacterium lentum 43055 were obtained from American Type Culture Collection (ATCC). […] Broth dilution is not a validated method for MIC testing of Clostridium; however, due to potential inaccuracy of measuring the pH of solid agar after equilibration inside the anaerobic chamber, both methods were used and compared for the assessment of pH effects.

C. difficile ATCC 700057 [4] = assay: MIC, broth microdilution (pH effect); format: cell-based, Clostridium difficile; conditions: in µg/mL
C. difficile strains [5] = assay: MIC, broth microdilution, statements for both C. difficile strains; format: cell-based, Clostridium difficile; conditions: all three experiments
C. difficile ATCC 700057 [6] = assay: MIC, CLSI agar dilution; format: cell-based, Clostridium difficile
Source text: as §1

C. difficile ATCC 9689 [7] = assay: MIC, CLSI agar dilution; format: cell-based, Clostridium difficile; conditions: for MIC: Clostridioides difficile, different lots of media
Source text: as §1

Bacteroides group = assay: Quantitative stool cultures of Phase 2A patients, Bacteroides group counts; format: in vivo, human
C. difficile = assay: Quantitative stool cultures of Phase 2A patients, C. difficile counts; format: in vivo, human; conditions: all patients except one receiving 50 mg; 50, 100 or 200 mg twice daily for 10 days (vancomycin 125 mg qid)
C. difficile ATCC 9689 [8] = assay: MIC, broth microdilution (pH effect); format: cell-based, Clostridium difficile; conditions: in µg/mL
C. difficile (17857) = assay: MIC, CLSI agar dilution, different lots of media; format: cell-based, Clostridium difficile; conditions: Clostridioides difficile
Source text: as §2

C. difficile (43255) = assay: MIC, CLSI agar dilution, different lots of media; format: cell-based, Clostridium difficile; conditions: for MIC: Clostridioides difficile
Source text: as §2

[9] = anaerobic pH 6.7, 10 mM NaH2PO4 pH 7.0 (air)
[10] = anaerobic pH 6.8, 100 mM NaH2PO4 pH 7.0 (Air)
[11] = anaerobic pH 7.2, 10 mM MOPS pH 8.0 (Air)
[12] = anaerobic pH 7.5, 100 mM MOPS pH 8.0 (Air)
[13] = anaerobic pH 7.6, 10 mM TAPS pH 9.0 (Air)
[14] = anaerobic pH 8, 100 mM TAPS pH 9.0 (Air)
[15] = anaerobic pH 8.1, 100 mM TAPS pH 9.5 (Air)
[16] = strongly buffered series, anaerobic pH 6, pH 6.0 (Air)
[17] = unbuffered media, anaerobic pH 5.9
[18] = unbuffered media, anaerobic pH 6.6
[19] = unbuffered media, anaerobic pH 7.1
[20] = unbuffered media, anaerobic pH 7.5
[21] = weakly buffered series, anaerobic pH 6, pH 6.0 (Air)
[22] = anaerobic pH 7, 100 mM NaH2PO4, pH 7.2 (Air)

CCc1c(Cl)c(O)c(Cl)c(O)c1C(=O)OC1C(C)OC(OC/C2=C\C=C\CC(O)/C(C)=C/C(CC)C(OC3OC(C)(C)C(OC(=O)C(C)C)C(O)C3O)/C(C)=C/C(C)=C/CC(C(C)=O)OC2=O)C(OC)C1O (centres unmarked) [OP-1402]
fold increased in MIC relative to tiacumicn B [1]: 2-4x

CCC(=O)OC1C(O)C(O)C(OC2/C(C)=C/C(C)=C/CC(C(C)O)OC(=O)/C(COC3OC(C)C(OC(=O)c4c(O)c(Cl)c(O)c(Cl)c4CC)C(O)C3OC)=C/C=C/CC(O)/C(C)=C/C2CC)OC1(C)C (centres unmarked) [OP-1417]
fold increased in MIC relative to tiacumicn B [1]: 2-4x

Cc1ncc([N+](=O)[O-])n1CCO [Metronidazole, metronidazole]
MIC values range in our laboratory (C. difficile strains [2]; control vs. C. difficile strains): 0.25 to 0.5 µg/mL
MIC ([3]; 24 h, Day 1): 1 µg/mL (≈ 5.84 µM)
MIC ([3]; 48 h, Day 2): 0.25 µg/mL (≈ 1.46 µM)
MIC ([3]; 72 h, Day 3): 1 µg/mL (≈ 5.84 µM)

CCC1/C=C(\C)C(O)C/C=C/C=C(\COC2OC(C)C(OC(=O)c3c(C)c(Cl)c(O)c(Cl)c3O)C(O)C2OC)C(=O)CC(C(C)O)C/C=C(C)/C=C(\C)C1OC1OC(C)(C)C(OC(=O)C(C)C)C(O)C1O (centres unmarked) [OP-1405, lipiarmycin A4]
fold increased in MIC relative to tiacumicn B [1]: 1-4x

CN[C@H](CC(C)C)C(=O)N[C@H]1C(=O)N[C@@H](CC(N)=O)C(=O)N[C@H]2C(=O)N[C@H]3C(=O)N[C@H](C(=O)N[C@H](C(=O)O)c4cc(O)cc(O)c4-c4cc3ccc4O)[C@H](O)c3ccc(c(Cl)c3)Oc3cc2cc(c3O[C@@H]2O[C@H](CO)[C@@H](O)[C@H](O)[C@H]2O[C@H]2C[C@](C)(N)[C@H](O)[C@H](C)O2)Oc2ccc(cc2Cl)[C@H]1O [Vancomycin, vancomycin]
MIC (C. difficile ATCC 700057 [4]; [9]): 1
MIC (C. difficile ATCC 700057 [4]; [10]): 2
MIC (C. difficile ATCC 700057 [4]; [11]): 2
MIC (C. difficile ATCC 700057 [4]; [12]): 4
MIC (C. difficile ATCC 700057 [4]; [13]): 4
MIC (C. difficile ATCC 700057 [4]; [14]): 8
MIC (C. difficile ATCC 700057 [4]; [15]): 8
MIC (C. difficile ATCC 700057 [4]; [16]): 1
MIC (C. difficile ATCC 700057 [4]; [17]): 0.5
MIC (C. difficile ATCC 700057 [4]; [18]): 1
MIC (C. difficile ATCC 700057 [4]; [19]): 1 and 2
MIC (C. difficile ATCC 700057 [4]; [20]): 2 and 4
MIC (C. difficile ATCC 700057 [4]; [21]): 0.5
Effect of inoculum density on MIC (C. difficile strains [2]; 10^5-10^8 cfu/ml (10^2-10^5 CFU/spot), ATCC 9689 and ATCC 700057, highest over lowest inoculum density): fourfold increase in MIC
MIC at highest pH treatment relative to lowest pH treatment (C. difficile strains [5]): 4-8 fold
In vitro activity (MIC) (C. difficile ATCC 700057 [6]; agar dilution, inoculum density 1.48 × 10^8 cfu/ml, 1.48 × 10^5): 2 µg/mL
agar dilution MIC (C. difficile ATCC 700057 [6]; [22]): 4
agar dilution MIC (C. difficile ATCC 700057 [6]; pH 6.7, unbuffered column): 2 (pH 6.7)
agar dilution MIC (C. difficile ATCC 9689 [7]; [22]): 4
agar dilution MIC (C. difficile ATCC 9689 [7]; pH 6.7, unbuffered column): 1 (pH 6.7)
Effect on Bacteroides counts during therapy (Bacteroides group; 125 mg qid for 10 days): severely impairs Bacteroides counts
Bacteroides group counts/gm feces wet weight, mean ± SD (Bacteroides group; Day 0, 125 mg qid (n = 7)): 7.39 ± 2.67 log10 CFU
C. difficile quantitative counts at day 10 (C. difficile): similarly effective
MIC (C. difficile ATCC 9689 [8]; [9]): 1
MIC (C. difficile ATCC 9689 [8]; [10]): 1 and 2
MIC (C. difficile ATCC 9689 [8]; [11]): 2
MIC (C. difficile ATCC 9689 [8]; [12]): 4
MIC (C. difficile ATCC 9689 [8]; [13]): 4
MIC (C. difficile ATCC 9689 [8]; [14]): >8
MIC (C. difficile ATCC 9689 [8]; [15]): >8
MIC (C. difficile ATCC 9689 [8]; [16]): 1 and 0.5
MIC (C. difficile ATCC 9689 [8]; [17]): 0.5 and 1
MIC (C. difficile ATCC 9689 [8]; [18]): 0.5 and 1
MIC (C. difficile ATCC 9689 [8]; [19]): 2
MIC (C. difficile ATCC 9689 [8]; [20]): 4
MIC (C. difficile ATCC 9689 [8]; [21]): 0.5

CCC[C@@H]1C[C@@H](C(=O)N[C@@H]([C@H]2O[C@H](SC)[C@H](O)[C@@H](O)[C@H]2O)[C@H](C)Cl)N(C)C1 [Clindamycin, clindamycin]
MIC (C. difficile ATCC 9689 [7]; ATCC9689, 24 h, Day 1): 4 µg/mL (≈ 9.41 µM)
MIC (C. difficile ATCC 9689 [7]; ATCC9689, 48 h, Day 2): 4 µg/mL (≈ 9.41 µM)
MIC (C. difficile ATCC 9689 [7]; ATCC9689, 72 h, Day 3): 4 µg/mL (≈ 9.41 µM)
MIC (C. difficile (17857); 24 h, Day 1): 4 µg/mL (≈ 9.41 µM)
MIC (C. difficile (17857); 48 h, Day 2): 2 µg/mL (≈ 4.71 µM)
MIC (C. difficile (17857); 72 h, Day 3): 4 µg/mL (≈ 9.41 µM)
MIC (C. difficile (43255); 24 h, Day 1): 8 µg/mL (≈ 18.8 µM)
MIC (C. difficile (43255); 48 h, Day 2): 4 µg/mL (≈ 9.41 µM)
MIC (C. difficile (43255); 72 h, Day 3): 8 µg/mL (≈ 18.8 µM)
MIC values (C. difficile (43255); Day 2): 8 µg/mL (≈ 18.8 µM)
MIC ([3]; 24 h, Day 1): 0.25 µg/mL (≈ 0.588 µM)
MIC ([3]; 48 h, Day 2): 0.25 µg/mL (≈ 0.588 µM)
MIC ([3]; 72 h, Day 3): 0.125 µg/mL (≈ 0.294 µM)

CCc1c(Cl)c(O)c(Cl)c(O)c1C(=O)OC1C(C)OC(OC/C2=C\C=C\CC(O)/C(C)=C/C(CC)C(OC3OC(C)(C)C(OC(C)=O)C(O)C3O)/C(C)=C/C(C)=C/CC(C(C)O)OC2=O)C(OC)C1O (centres unmarked) [OP-1416]
fold increased in MIC relative to tiacumicn B [1]: 2-4x

CCc1c(Cl)c(O)c(Cl)c(O)c1C(=O)OC1C(C)OC(OC/C2=C\C=C\CC(O)/C(C)=C/C(CC)C(OC3OC(C)(C)C(OC(=O)CC(C)C)C(O)C3O)/C(C)=C/C(C)=C/CC(C(C)O)OC2=O)C(OC)C1O (centres unmarked) [OP-1437]
fold increased in MIC relative to tiacumicn B [1]: 2x

CCC1CC=C(C)C=C(C)C(OC2OC(C)(C)C(OC(C)=O)C(O)C2O)C(CC)C=C(C)C(O)CC=CC=C(C)C(=O)O1 (centres unmarked) [OP-1434, tiacumicin A]
fold increased in MIC relative to tiacumicn B [1]: >32x

CCc1c(Cl)c(O)c(Cl)c(O)c1C(=O)O[C@H]1[C@H](O)[C@H](OC)[C@H](OC/C2=C\C=C\C[C@H](O)/C(C)=C/[C@H](CC)[C@@H](O[C@@H]3OC(C)(C)[C@@H](OC(=O)C(C)C)[C@H](O)[C@@H]3O)/C(C)=C/C(C)=C/C[C@@H](C(C)O)OC2=O)O[C@@H]1C (some centres unmarked) [OP-1441, tiacumicin B]
fold increased in MIC relative to tiacumicn B [1]: 1x

CCc1c(Cl)c(O)c(Cl)c(O)c1C(=O)OC1C(C)OC(OC/C2=C/C=C/CC(O)/C(C)=C/C(CC)C(OC3OC(C)(C)C(O)C(OC(=O)C(C)C)C3O)/C(C)=C/C(C)=C/CC(C(C)O)OC2=O)C(OC)C1O (centres unmarked) [OP-1431, tiacumicin F]
fold increased in MIC relative to tiacumicn B [1]: 8x

CCc1c(Cl)c(O)c(Cl)c(O)c1C(=O)OC1C(C)OC(OC/C2=C/C=C/CC(O)/C(C)=C/C(CC)C(OC3OC(C)(C)C(O)C(O)C3OC(=O)C(C)C)/C(C)=C/C(C)=C/CC(C(C)O)OC2=O)C(OC)C1O (centres unmarked) [OP-1432, tiacumicin C]
fold increased in MIC relative to tiacumicn B [1]: 8-16x
